Source: patent publication US20170208848A1, “PROCESS FOR MANUFACTURING AN IRON FORTIFIED FOOD PRODUCT” (NESTEC S.A., priority 2014, published 2017)

Assay: Browning of the sprayed regions of the edible material with polysaccharide in the liquid composition
Format: physicochemical
Conditions: polysaccharide included in the liquid composition
Source text: The polysaccharide comprised in the liquid composition of the process of the invention may be selected from the group consisting of maltodextrin, acacia gum, agar-agar, carrageenan, tragacanth, locust bean gum, guar gum, xanthan gum and combinations of these. […] The polysaccharide may be carrageenan or acacia gum.

| Substance | browning of the sprayed regions of the edible material |
| --- | --- |
| Carrageenan | particularly effective at preventing or delaying browning |
| acacia gum | particularly effective at preventing or delaying browning |
